Consider two molecules from patent publication US8815925B2, “Use of combination preparations comprising antifungal agents” (priority 2006, dated 2014).

In assay [1] the test system is chronic-recurrent vulvovaginitis. Particulars: Fluconazol 150 mg orally, long-term regimen; cited from earlier work.
A further assay has as its system Candida vulvovaginitis. The procedure:
The treatment was by topical administration of suitable pharmaceutical substance combinations on the skin, or on the mucosae of the genitourinary tract and of the oropharynx, respectively. […]
(§1) Therapy with an ointment combination of Clotrimazole/Diclofenac-Na
Single dose: 5 mg of Diclofenac-Na/20 mg of Clotrimazole
Dosage regimen: initially (3 days) 3×/day ointment strips of 2.5 cm locally applied in vulva and vagina, subsequently once per day, for 4 days.
patient, suffering from chronic-recurrent Candida vulvovaginitis for years (>10 recurrences/year), otherwise healthy, prior treatment both topical (Clotrimazole, Miconazole) and systemically (Fluconazole, several times, also long-term therapy and therapy of the partner).
Initial therapy: Clotrimazole/Diclofenac (25/25 mg) supp. for 2 days, subsequently
Clotrimazole/Diclofenac as ointment as described in Case 1, for 3 days. […]

The subject of assay [2] is diaper thrush (Candida mycosis).
Description: The treatment was by topical administration of suitable pharmaceutical substance combinations on the skin, or on the mucosae of the genitourinary tract and of the oropharynx, respectively.
as §1

As to `OC(Cn1cncn1)(Cn1cncn1)c1ccc(F)cc1F` [Fluconazol], the “cases that become recurrent after discontinuation” value in assay [1] is recorded as “about 50%”.

In the case of `Clc1ccccc1C(c1ccccc1)(c1ccccc1)n1ccnc1` [Clotrimazole], the “response to local treatment (monotherapy)” value in the assay with Candida vulvovaginitis (Case 1, during pregnancy, before the combination therapy) is “complete therapy resistance”. Also, the response to monotherapy result in the assay with Candida vulvovaginitis (Case 2, 8 days of therapy, before the combination therapy) is listed as “low-grade improvement”. The “improvement by conventional local therapy (summary)” value with Candida vulvovaginitis (first and third cases) is “no improvement”. The “course of curing under monotherapy (summary)” value in the assay on Candida vulvovaginitis (second case, 8 days of intensive therapy) is “highly retarded”. The “clinical picture under monotherapy (summary)” value in assay [2] (first diaper thrush case) is reported as “marked deterioration”. Further, the “healing under monotherapy (summary)” value in assay [2] (second (mild) diaper thrush case) is given as “healing after three days”.
